# Laboratory results reported in BindingDB's records for doi:10.1021/jm010384j (Wake Forest University School of Medicine, 2001).
# Biological target: Sigma non-opioid intracellular receptor 1 (Cavia porcellus) (UniProt Q60492)
# Assay: Binding affinity for sigma 1 opioid receptor, measured on guinea pig brain membranes using [3H]- (+)-pentazocine as radioligand
# Chain of Sigma non-opioid intracellular receptor 1 (Cavia porcellus) (Q60492 whole entry, looked up): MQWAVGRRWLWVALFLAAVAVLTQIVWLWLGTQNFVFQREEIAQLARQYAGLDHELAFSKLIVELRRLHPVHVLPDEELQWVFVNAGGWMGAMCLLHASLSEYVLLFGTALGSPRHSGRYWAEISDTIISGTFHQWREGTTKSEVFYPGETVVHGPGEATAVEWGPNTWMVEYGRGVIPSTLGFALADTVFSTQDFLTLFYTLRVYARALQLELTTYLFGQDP
row,Ki,SMILES
1,22.7 nM,O=C(Nc1cccc2ccccc12)NC1CCN(Cc2ccccc2)CC1 [1-(1-Benzyl-piperidin-4-yl)-3-naphthalen-1-yl-urea]
2,15.4 nM,O=C(Cc1ccccc1F)NC1CCN(Cc2cccc(I)c2)CC1 [2-(2-Fluoro-phenyl)-N-[1-(3-iodo-benzyl)-piperidin-4-yl]-acetamide]
3,4.2 nM,O=C(Cc1ccccc1F)NC1CCN(Cc2ccc(I)cc2)CC1 [2-(2-Fluoro-phenyl)-N-[1-(4-iodo-benzyl)-piperidin-4-yl]-acetamide]
4,3.49 nM,O=C(Cc1cccc(Br)c1)NC1CCN(Cc2cccc(I)c2)CC1 [2-(3-Bromo-phenyl)-N-[1-(3-iodo-benzyl)-piperidin-4-yl]-acetamide]
5,1.21 nM,O=C(Cc1cccc(Br)c1)NC1CCN(Cc2ccc(F)cc2)CC1 [2-(3-Bromo-phenyl)-N-[1-(4-fluoro-benzyl)-piperidin-4-yl]-acetamide]
6,1.78 nM,O=C(Cc1cccc(Br)c1)NC1CCN(Cc2ccc(I)cc2)CC1 [2-(3-Bromo-phenyl)-N-[1-(4-iodo-benzyl)-piperidin-4-yl]-acetamide]
7,2.31 nM,O=C(Cc1cccc(Cl)c1)NC1CCN(Cc2cccc(I)c2)CC1 [2-(3-Chloro-phenyl)-N-[1-(3-iodo-benzyl)-piperidin-4-yl]-acetamide]
8,1.15 nM,O=C(Cc1cccc(Cl)c1)NC1CCN(Cc2ccc(F)cc2)CC1 [2-(3-Chloro-phenyl)-N-[1-(4-fluoro-benzyl)-piperidin-4-yl]-acetamide]
9,3.21 nM,O=C(Cc1cccc(Cl)c1)NC1CCN(Cc2ccc(I)cc2)CC1 [2-(3-Chloro-phenyl)-N-[1-(4-iodo-benzyl)-piperidin-4-yl]-acetamide]
10,4.29 nM,O=C(Cc1cccc(F)c1)NC1CCN(Cc2cccc(I)c2)CC1 [2-(3-Fluoro-phenyl)-N-[1-(3-iodo-benzyl)-piperidin-4-yl]-acetamide]
11,2.25 nM,O=C(Cc1cccc(F)c1)NC1CCN(Cc2ccc(I)cc2)CC1 [2-(3-Fluoro-phenyl)-N-[1-(4-iodo-benzyl)-piperidin-4-yl]-acetamide]
12,> 1000 nM,O=C(Cc1ccccc1)NC1CCN(Cc2ccccc2C(F)(F)F)CC1 [2-Phenyl-N-[1-(2-trifluoromethyl-benzyl)-piperidin-4-yl]-acetamide]
13,141 nM,O=C(Cc1ccccc1)NC1CCN(Cc2cccc(C(F)(F)F)c2)CC1 [2-Phenyl-N-[1-(3-trifluoromethyl-benzyl)-piperidin-4-yl]-acetamide]
14,87 nM,O=C(Cc1ccccc1)NC1CCN(Cc2ccc(C(F)(F)F)cc2)CC1 [2-Phenyl-N-[1-(4-trifluoromethyl-benzyl)-piperidin-4-yl]-acetamide]
15,248 nM,O=C(Cc1cnc[nH]1)NC1CCN(Cc2ccccc2)CC1 [N-(1-Benzyl-piperidin-4-yl)-2-(1H-imidazol-4-yl)-acetamide]
16,10.9 nM,O=C(Cc1c[nH]c2ccccc12)NC1CCN(Cc2ccccc2)CC1 [N-(1-Benzyl-piperidin-4-yl)-2-(1H-indol-3-yl)-acetamide]
17,13.8 nM,O=C(Cc1ccc(I)cc1)NC1CCN(Cc2ccccc2)CC1 [N-(1-Benzyl-piperidin-4-yl)-2-(4-iodo-phenyl)-acetamide]
18,51.9 nM,O=C(Cc1c[nH]c2ccc(Br)cc12)NC1CCN(Cc2ccccc2)CC1 [N-(1-Benzyl-piperidin-4-yl)-2-(5-bromo-1H-indol-3-yl)-acetamide]
19,125 nM,COc1ccc2[nH]cc(CC(=O)NC3CCN(Cc4ccccc4)CC3)c2c1 [N-(1-Benzyl-piperidin-4-yl)-2-(5-methoxy-1H-indol-3-yl)-acetamide]
20,299 nM,COc1ccc2c(c1)C(CC(=O)NC1CCN(Cc3ccccc3)CC1)CC2=O (configuration not stated) [N-(1-Benzyl-piperidin-4-yl)-2-(6-methoxy-3-oxo-indan-1-yl)-acetamide]
21,> 1000 nM,"O=C1C=CC2C(CC(=O)NC3CCN(Cc4ccccc4)CC3)=CC(=O)OC2C1 (configuration not stated) [N-(1-Benzyl-piperidin-4-yl)-2-(7-hydroxy-2-oxo-4a,8a-dihydro-2H-chromen-4-yl)-acetamide]"

row,Ki,SMILES
1,150 nM,O=C(CSc1ncccn1)NC1CCN(Cc2ccccc2)CC1 [N-(1-Benzyl-piperidin-4-yl)-2-(pyrimidin-2-ylsulfanyl)-acetamide]
2,4.64 nM,O=C(Cc1cccc2ccccc12)NC1CCN(Cc2ccccc2)CC1 [N-(1-Benzyl-piperidin-4-yl)-2-naphthalen-1-yl-acetamide]
3,61.8 nM,O=C(Cc1ccc2ccccc2c1)NC1CCN(Cc2ccccc2)CC1 [N-(1-Benzyl-piperidin-4-yl)-2-naphthalen-2-yl-acetamide]
4,236 nM,O=C(Cc1ccccn1)NC1CCN(Cc2ccccc2)CC1 [N-(1-Benzyl-piperidin-4-yl)-2-pyridin-2-yl-acetamide]
5,269 nM,O=C(Cc1cccnc1)NC1CCN(Cc2ccccc2)CC1 [N-(1-Benzyl-piperidin-4-yl)-2-pyridin-3-yl-acetamide]
6,298 nM,O=C(Cc1ccncc1)NC1CCN(Cc2ccccc2)CC1 [N-(1-Benzyl-piperidin-4-yl)-2-pyridin-4-yl-acetamide]
7,3.93 nM,O=C(Cc1cccs1)NC1CCN(Cc2ccccc2)CC1 [N-(1-Benzyl-piperidin-4-yl)-2-thiophen-2-yl-acetamide]
8,7.2 nM,O=C(Cc1ccsc1)NC1CCN(Cc2ccccc2)CC1 [N-(1-Benzyl-piperidin-4-yl)-2-thiophen-3-yl-acetamide]
9,23.9 nM,O=C(Cc1ccccc1)NC1CCN(Cc2ccc3ccccc3c2)CC1 [N-(1-Naphthalen-2-ylmethyl-piperidin-4-yl)-2-phenyl-acetamide]
10,10.2 nM,O=C(Cc1ccccc1)NC1CCN(Cc2ccccc2F)CC1 [N-[1-(2-Fluoro-benzyl)-piperidin-4-yl]-2-phenyl-acetamide]
11,347 nM,O=C(Cc1ccccc1)NC1CCN(Cc2ccccc2I)CC1 [N-[1-(2-Iodo-benzyl)-piperidin-4-yl]-2-phenyl-acetamide]
12,7.24 nM,"O=C(Cc1ccccc1)NC1CCN(Cc2ccc(Cl)c(Cl)c2)CC1 [N-[1-(3,4-Dichloro-benzyl)-piperidin-4-yl]-2-phenyl-acetamide]"
13,6.3 nM,"O=C(Cc1ccccc1)NC1CCN(Cc2ccc(F)c(F)c2)CC1 [N-[1-(3,4-Difluoro-benzyl)-piperidin-4-yl]-2-phenyl-acetamide]"
14,8.22 nM,O=C(Cc1ccccc1)NC1CCN(Cc2cccc(F)c2)CC1 [N-[1-(3-Fluoro-benzyl)-piperidin-4-yl]-2-phenyl-acetamide]
15,6.75 nM,O=C(Cc1ccccc1)NC1CCN(Cc2cccc(I)c2)CC1 [N-[1-(3-Iodo-benzyl)-piperidin-4-yl]-2-phenyl-acetamide]
16,3.15 nM,O=C(Cc1ccccc1F)NC1CCN(Cc2ccc(F)cc2)CC1 [N-[1-(4-Fluoro-benzyl)-piperidin-4-yl]-2-(2-fluoro-phenyl)-acetamide]
17,5.51 nM,O=C(Cc1cccc(F)c1)NC1CCN(Cc2ccc(F)cc2)CC1 [N-[1-(4-Fluoro-benzyl)-piperidin-4-yl]-2-(3-fluoro-phenyl)-acetamide]
18,6.59 nM,O=C(Cc1ccccc1)NC1CCN(Cc2ccc(F)cc2)CC1 [N-[1-(4-Fluoro-benzyl)-piperidin-4-yl]-2-phenyl-acetamide]
19,9.03 nM,O=C(Cc1ccccc1)NC1CCN(Cc2ccc(I)cc2)CC1 [N-[1-(4-Iodo-benzyl)-piperidin-4-yl]-2-phenyl-acetamide]
20,19.1 nM,O=C(Cc1ccccc1)NC1CCN(Cc2ccc([N+](=O)[O-])cc2)CC1 [N-[1-(4-Nitro-benzyl)-piperidin-4-yl]-2-phenyl-acetamide]

row,SMILES,Ki
1,O=C(Cc1ccccc1)NC1CCN(CCc2ccccc2)CC1 [N-(1-Phenethyl-piperidin-4-yl)-2-phenyl-acetamide],31.2 nM
